Measured values reported in patent US8822531B2, “Honokiol analogs and their use in treating cancers” (priority 2007, dated 2014).
Values joined by “and” are separate entries in the source; they are usually repeats but may differ in a detail not shown here. Identical values can stand only once.

System: tumor cells
Experiment: Tumor volume in nude mice injected subcutaneously with tumor cells, treated with honokiol diepoxide
Format: in vivo
Details: 40 mg/kg daily intraperitoneally
Experimental: Nude mice were injected subcutaneously with approximately one million tumor cells. Once tumors became visible, they were treated with 40 mg/kg daily of honokiol diepoxide. The compound was reconstituted in 100 microliters of ethanol and diluted with 900 microliters of 20% Intralipid, and 0.3 ml of this mixture was injected intraperitoneally daily. Tumors were measured with vernier calipers, and tumor volume was calculated using the formula (width^2×length)0.52, where width is the smallest dimension, 2 represents squared, and […].

Oc1ccc(-c2cc(CC3CO3)ccc2O)cc1CC1CO1 (stereo not shown) [Honokiol Epoxide, honokiol diepoxide]
Average (tumor volume) (group average, in mm³ (unit assumed)): 433.3632 | Tumor Volume (individual animal, volume = (width^2 x length) x 0.52, 40 mg/kg, in mm³ (unit assumed)): 385.2 and 914.8568 and 0 | W (tumor width) (individual animal, vernier calipers, 40 mg/kg): 8.59 and 11 and 0 | L (tumor length) (individual animal, vernier calipers, 40 mg/kg, in mm (unit assumed)): 10.04 and 14.54 and 0
